Assay results published in patent publication US20070293576A1, “Pharmaceutical Methods, Dosing Regimes And Dosage Forms For The Treatment Of Alzheimer's Disease” (Myriad Genetics, Incorporated, priority 2003, published 2007).
Where two headings read alike, the source gives them in different places.

Experiments:
[1] = Phase I pharmacokinetic study of R-flurbiprofen in plasma, one compartment model; format: in vivo, human; details: oral capsules, plasma Study Day 21, mean value one compartment model
Protocol: The study is conducted as a double-blind, placebo-controlled, sequential, ascending dose level, multiple dose study, including men and women. Sixteen subjects are assigned to each of three sequential cohorts: 200 mg BID, 400 mg BID, and 800 mg BID of R-flurbiprofen, each with matched placebo BID. Each cohort contains a 3:1 ratio of assignment to active drug (n=12) versus placebo (n=4), resulting in 4 treatment groups of 12 subjects each after combining the 3 placebo groups. The study is balanced by site and stratified by gender. Subjects receive either R-flurbiprofen at the specified dose or a matched placebo orally for 21 days. Blood and urine samples are collected for laboratory safety data at Study Day 1, Study Day 21, and End of Study (30-Day Follow Up) visit. Blood and CSF are collected for pharmacokinetic and biomarker measures at Study Day 1 and after 21 days of treatment with the study drug.
Subjects are instructed to take 1 capsule from Bottle A and 1 capsule from Bottle B 2 times per day (BID) for 20 days; Bottles A and B may contain R-flurbiprofen or placebo. The intraday dosing interval is approximately 12 hours, and the study drug is taken at approximately the same time each day. After 20 days (i.e., on Study Day 21), study participants undergo a pharmacokinetic study, as described below. Daily doses for the 4 groups of the study are: • 400 mg R-flurbiprofen (given as one 200 mg capsule and 1 placebo capsule BID) • 800 mg R-flurbiprofen (given as one 400 mg capsule and 1 placebo capsule BID) • 1600 mg R-flurbiprofen (given as two 400 mg capsules BID)
Blood and urine samples are collected on Study Day 21 from fasted participants for clinical chemistries, hematology, coagulation parameters, and urinalysis. Blood samples are collected on Study Day 21 at 0.5, 1, 2, 4, and 6 hours, and, if possible, 8 and 24 hours, after administration of the final dose of study drug. The total amount of blood collected for the pharmacokinetic analyses is approximately 64 mL. All blood samples for PK/PD analysis are analyzed for both R-flurbiprofen and S-flurbiprofen, and the extent of bioinversion of R-flurbiprofen to S-flurbiprofen is assessed.
The plasma concentration time profile of R-flurbiprofen is analyzed using nonlinear modeling, and preliminary estimates of PK parameters are obtained. Estimates include individual and mean half-life, clearance, AUC, Cmax, Tmax, and average steady-state concentration. Cerebrospinal fluid levels of R-flurbiprofen are summarized. If plasma concentrations over time are similar to those found in other patient populations, Bayesian estimation is used to estimate population PK parameters, allowing the PK parameters observed in this population to be evaluated in the context of data observed in additional clinical studies. Estimates include the mean and individual PK parameters as well as the magnitude of intersubject variability.
A clinical trial was conducted as described in Example 5, above. Pharmacokinetic parameters were determined using WinNonlin® Version 4.0 (Pharsight, Mountain View, Calif.). A one compartment model with first order elimination and uniform weighting was used with WinNonlin estimated parameter boundaries for absorption rate (K01), elimination rate (K10) and volume (V_F). Individual and mean value parameters derived include K10 half-life, Cmax (maximum plasma concentration), Tmax (time of maximum plasma concentration), AUC (area under the plasma time and concentration curve), and Cl_F (clearance). The model calculates the concentration at time T as follows: C(T)=D*K01/V/(K01−K10)*(EXP(−K10*T)−EXP(−K01*T)) (1), where C(T) is concentration at time T; D=dose; V is volume; V_F is volume of distribution over systemic availability; K01 is the absorption rate constant; K10 is elimination rate constant; CL_F is clearance over systemic availability; and T is time. […]

[2] = system: Aβ42; details: transgenic mouse model; cited from earlier work
[3] = system: Aβ42; details: CHO cells; cited from earlier work
[4] = system: COX; details: cited from earlier work
[5] = target: cytochrome P450 (CYP) 2C9 (Homo sapiens, UniProt P11712); details: cited from earlier work
[6] = system: patients with Alzheimer's disease; details: clinical trials; rofecoxib at 25 mg daily; cited from earlier work
[7] = system: patients having mild cognitive impairment; details: cited from earlier work
[8] = 200 mg BID group, modeled as single 200 mg dose
[9] = 400 mg BID group, modeled as single 400 mg dose
[10] = 800 mg BID group, modeled as single 800 mg dose

cytochrome P450 (CYP) 2C9, sequence (P11712 whole entry): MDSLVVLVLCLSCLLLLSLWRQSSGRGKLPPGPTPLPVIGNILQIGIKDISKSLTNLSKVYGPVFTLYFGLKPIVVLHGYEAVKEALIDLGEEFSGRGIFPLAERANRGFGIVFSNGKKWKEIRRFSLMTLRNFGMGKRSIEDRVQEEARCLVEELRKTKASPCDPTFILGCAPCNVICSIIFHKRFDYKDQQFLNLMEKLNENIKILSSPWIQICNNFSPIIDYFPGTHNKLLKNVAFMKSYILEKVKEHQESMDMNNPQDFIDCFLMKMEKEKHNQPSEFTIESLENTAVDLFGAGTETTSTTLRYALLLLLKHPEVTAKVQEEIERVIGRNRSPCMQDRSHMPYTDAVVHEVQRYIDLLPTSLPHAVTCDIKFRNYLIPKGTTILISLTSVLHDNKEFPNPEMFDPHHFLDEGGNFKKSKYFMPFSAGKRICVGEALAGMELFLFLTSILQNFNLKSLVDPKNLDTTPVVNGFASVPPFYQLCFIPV

C[C@@H](C(=O)O)c1ccc(-c2ccccc2)c(F)c1 [R-flurbiprofen]
AUC [1, 8]: 246 µg·h/mL
CL_F [1, 8]: 812 mL/h
K10_HL [1, 8]: 6.56 h
Tmax [1, 8]: 2.28 h
AUC [1, 9]: 577 µg·h/mL
CL_F [1, 9]: 693 mL/h
K10_HL [1, 9]: 8.04 h
Tmax [1, 9]: 1.58 h
AUC [1, 10]: 487 µg·h/mL
CL_F [1, 10]: 1642 mL/h
K10_HL [1, 10]: 5.90 h
Tmax [1, 10]: 0.86 h
effect on Aβ42 [2]: lower Aβ42
effect on Aβ42 [3]: lower Aβ42
inhibition of COX activity [4]: negligibly inhibits
inhibition of the metabolism of drugs that are substrates of CYP2C9 [5]: inhibit the metabolism

CC(C(=O)O)c1ccc(-c2ccccc2)c(F)c1 (racemic) [flurbiprofen, (R,S)-(2-fluoro-biphenylyl)propionic acid, reference compound]
inhibition of the metabolism of drugs that are substrates of CYP2C9 [5]: inhibit the metabolism

COc1ccc2cc([C@H](C)C(=O)O)ccc2c1 [Naproxen]
efficacy for treating AD [6]: failed to show efficacy

CS(=O)(=O)c1ccc(C2=C(c3ccccc3)C(=O)OC2)cc1 [rofecoxib]
prevention of the development of Alzheimer's disease ([7]; large prevention clinical trial): failed to prevent the development of Alzheimer's disease
patients who developed AD ([7]; large prevention trial, 4.5% for placebo): 6.4%
efficacy for treating AD [6]: failed to show efficacy
